Data taken from US10016494B2, “Antigenic epitopes from EBV gp350/220 and uses thereof” (VALORISATION-HSJ, LIMITED PARTNERSHIP, priority 2014, dated 2018).

What was measured:
[1] = test system: P3HR1 virus super-infection of Raji cells; assay: EBV antibody neutralization assay; type: cell-based, Epstein-Barr virus; settings: FIG. 2B, log10 dilutions of 0.01 to 10 μg/ml
Method: Antibody neutralization potency was measured as the inhibition of EBV early antigen (EA) expression upon super-infection of Raji cells by P3HR1 virus (33). Mixtures of concentrated virus (2×10^4 EA-inducing units) and serial dilutions of purified antibody were incubated in a final volume of 0.1 ml for 60 min at 37° C. prior to the addition of 5×10^4 Raji cells. The Raji cell-virus mixture was further incubated for 60 min at 37° C. followed by resuspension in RPMI medium and a 2-day incubation at 37° C. The number of Raji cells expressing EA after cell culture was measured by immunofluorescence, and relative antibody neutralization potency per μg of antibody was calculated.

[2] = test system: anti-gp350 monoclonal antibody 72A1; assay: Peptide ELISA: 72A1 antibody binding to plate-coated gp350 mimetic peptides; set-up: species or system murine; settings: for binding to the 72A1 antibody: FIG. 4A, peptide coated on ELISA plate; for Notes: reactivity with the 72A1 monoclonal antibody: Table III
Method: (§1) Gp350 mimetic peptides that were synthesized and HPLC purified to >70% (Elim Biopharmaceuticals®, Hayward, Calif.) were suspended at 2.5 μg/mL in 0.1M carbonate buffer pH 9 prior to their overnight incubation at 4° C. as 100 μL aliquots in a 96 well ELISA plate (Ultident®, St. Laurent, QC). Peptide-coated plates were washed 4× with PBS:0.05% Tween-20®, blocked with 1% BSA:PBS and incubated for a minimum of 2 h at room temperature (RT) with anti-gp350 monoclonal antibody 72A1, or the isotype-matched, background-control anti-LMP1 monoclonal antibody S-12 and 1:100 dilutions of commercial intravenous gamma globulin (IVIG) (18). Bound monoclonal antibodies were detected using biotin-conjugated goat anti-mouse IgG, biotin-conjugated anti-human IgG and horseradish peroxidase (HRP)-conjugated streptavidin (Jackson Immunoresearch Laboratories®, West Grove, Pa.) in conjunction with 3,3′,5,5′-Tetramethylbenzidine substrate (TMB solution, Bioshop®, Burlington ON). HRP enzyme activity was stopped with an equal volume of 1N HCl and wells read at 450nm.

[3] = test system: 72A1 antibody recognition of gp350 protein; assay: Competition ELISA: 72A1 pre-incubated with gp350 mimetic peptides in solution, then tested for binding to gp350; set-up: species or system Epstein-Barr virus; settings: for inhibition of 72A1 antibody recognition of gp350 protein: FIG. 4B, peptide allowed to interact with 72A1 in solution
Method: Whole cell ELISA was performed using CEM cells or CEM cells expressing gp350. The cells were washed with PBS, suspended at 1×10^6 cells/mL in PBS and 40 μL aliquots were added to each ELISA plate well. Plates were vacuum-dried prior to cell fixation with cold methanol. Plates were washed with PBS and wells blocked in 1% BSA:PBS prior to a 1 h exposure to monoclonal antibody or monoclonal antibody that was pre-incubated for 2 or more hours with gp350 mimetic peptides. Bound monoclonal antibodies were detected using biotin-conjugated goat anti-mouse IgG, HRP-conjugated streptavidin as outlined above.
Although peptide 3 contained the amino acid sequence EID shown by mutation to result in a loss of 72A1 binding (31), the lack of noted binding by peptide 3 may have been due to inappropriate adsorption to the ELISA plate that interfered with antibody binding. To avoid potential ELISA plate interference, gp350 mimetic peptides were allowed to interact with 72A1 antibody in solution, and later the antibody was tested for its ability to bind to native gp350 protein.

[4] = test system: human IgG (IVIG, human EBV immune serum); assay: Peptide ELISA with commercial intravenous gamma globulin (IVIG); type: binding; settings: FIG. 5, thirty-nine lots of IVIG, ± SD
Method: as §1
Although p2 was recognized by the murine monoclonal antibody 72A1 and was capable of generating antibodies that recognized the gp350 neutralizing epitope in mice, it is unknown whether EBV-positive human sera would recognize this gp350 mimetic peptide. The determination of human IgG reactivity against each of the three peptides could serve as a surrogate indicator of whether the gp350 mimetic peptides would be immunogenic or capable of generating an anti-gp350 antibody response. […] This was followed by p1 at levels of 1.83±0.07 pg/ml and by p3 with antibody levels of 1.7±0.06 pg/ml.

[5] = Peptide immunization of mice: anti-peptide IgG by ELISA; type: in vivo, Balb/C female mice; settings: FIG. 7A, KLH-coupled peptide 100 μg i.p., after third immunization, ± SEM
Method: (§2) Balb/C female mice were immunized intraperitoneally with 100 μg of keyhole limpet hemocyanin (KLH)-coupled with gp350 mimetic peptide (Sigma Conjugation Kit) emulsified in Sigma Adjuvant System (Sigma-Aldrich). Mice were re-injected every 21 days and blood was drawn 14 days after the second injection. Following the third immunization, IgG levels of peptide reactivity were measured by ELISA.
(§3) Balb/C female mice were immunized intraperitoneally with gp350 mimetic peptides as described in Example 1 above. Following the third immunization, IgG levels of peptide reactivity were measured by ELISA. All mice generated antibodies to their respective peptides with average antibody concentrations (pg/ml) of 97±46 SEM, 122±67 and 981±577 for p1, p2 and p3, respectively (FIG. 7A).

native gp350 = assay: Peptide immunization of mice: serum recognition of native gp350; type: in vivo, Balb/C female mice; settings: FIG. 7B, same mice sera, ± SEM
Method: as §2, §3

[6] = test system: 72A1 recognition of gp350; assay: Sera from peptide-immunized mice blocking biotinylated-72A1 binding to gp350; type: in vivo, Balb/C female mice; settings: FIG. 7C, pooled serum from peptide immunized mice, 1:50 dilution
Method: Histogram of biotinylated-72A1 binding to gp350 protein that was pre-exposed to mouse preimmune (preimm) serum, pooled serum from peptide immunized mice (1:50 dilution), or 1 μg/ml 72A1, or 0.5 mg/ml BSA. Average OD±SEM was derived from three separate experiments. P-values≤0.05 are indicated (*).
as §2, §3

[7] = FIG. 4C, altered domain compared to peptide 2

Substance | binding to the 72A1 antibody [2] | anti-peptide antibody levels in IVIG [4] [pg/mL] | average anti-peptide antibody concentration [5] [pg/mL] | average antibody concentration recognizing native gp350 (native gp350) [pg/mL] | further results
72A1 antibody: well-known mouse monoclonal antibody (IgG1 isotype), EBV gp350 neutralizing, commercially available | – | – | – | – | block of P3HR1 EBV super-infection of Raji cells [1]: block P3HR1 virus superinfection of Raji cells
AAAAAAAAQNPVYLIPETVPYIKWDN (SEQ ID NO: 33) (Epstein-Barr virus) [Peptide 2.2, Ala substitution of domain 1 of peptide 2] | – | – | – | – | binding activity compared to parental peptide 2 ([2]; FIG. 6B, peptide 2 = 100%): 56%; reduction in recognition of p2 by 72A1 antibody [3, 7]: 50%
DDRTLQLAAAPVAALIPAVVPAIAWAA (SEQ ID NO: 34) (Epstein-Barr virus) [Peptide 2.3, Domain 1-LA-altered Domain 2] | – | – | – | – | binding to the 72A1 monoclonal antibody ([2]; FIGS. 6A and 6B, alanine substitutions): did not bind; recognition of p2 by 72A1 antibody after domain alteration [3, 7]: abolished recognition
DDRTLQLAQNPVYLIPETVPYIKWDN (SEQ ID NO: 4) (Epstein-Barr virus) [Peptide 2] | strongly bound | 2.16 ± 0.08 | 122 ± 67 | 1.3 ± 0.9 | inhibition of 72A1 antibody recognition of gp350 protein [3]: 78%; inhibition of 72A1 recognition of gp350 by antisera [6]: 38%
EEKSAEAAQQPADAAPDSAPDAKMDQ (SEQ ID NO: 32) (Epstein-Barr virus) [Peptide 2.1, 72a1 positive mimeotope] | – | – | – | – | Notes: reactivity with the 72A1 monoclonal antibody [2]: 72a1 positive
GSAKPGNGSYFASVKTEMLGNEID (SEQ ID NO: 27) (Epstein-Barr virus) [Peptide 3, gp350 mimetic peptide encompassing the central area of the purported gp350 neutralizing domain] | did not bind | 1.7 ± 0.06 | 981 ± 577 | 4.1 ± 2.4 | inhibition of 72A1 antibody recognition of gp350 protein [3]: 8%; inhibition of 72A1 recognition of gp350 by antisera [6]: 23%
SKAPESTTTSPTLNTTGFADY (SEQ ID NO: 31) (Epstein-Barr virus) [Peptide 1, reference compound] | did not bind | 1.83 ± 0.07 | 97 ± 46 | 0.015 ± 0.01 | ELISA activity with 72A1 ([2]; FIG. 6A, value subtracted from the peptide 2 series before plotting): 0.355 OD; Notes: reactivity with the 72A1 monoclonal antibody [2]: 72A1 non-reactive
